Experimental data as given in patent publication US20250339409A1, “USES OF PAN BET INHIBITORS” (VYNE THERAPEUTICS INC., priority 2021, published 2025).

System: imiquimod-induced psoriasis
Assay: Imiquimod-induced psoriasis (Th17 inflammation) model in mice, topical treatment once daily D7-D13: PASI, modified PASI, body weight, use of enrichment, TEWL
Format: in vivo
Parameters: key to Mean score use enrichment: 0 = no use of dental rolls to 4 = use of all 4; key to PASI Mean score values: sum of erythema, induration, peeling scores, each 0-3 (0 = none)
Details: imiquimod-induced mice
Description: Thirty-six (36) female Balb/c mice are weighed and randomly divided into 9 groups (n=4) according to body weight on D1. For mice of native group 1 and tolerance groups 8 and 9, no induction of psoriasis is performed between D1 and D13. Psoriasis is induced in groups 2 to 7 by once daily topical application for 13 days (from day 1 to day 13) of 65 mg of Aldara™ cream (5.0% imiquimod) onto the shaved and epilated back of mice. Before the first treatment, a second randomization of mice of the 6 imiquimod-induced psoriasis groups is performed according to the severity of psoriasis (PASI), and also the body weight of mice. Starting on day 7 and until day 13, 100 mg of test formulations […] and 65 mg of vehicle (groups 1 and […]) are topically administered once daily for 7 consecutive days onto the shaved back skin of mice. Several measurements are taken during treatment period from day 7 to day 14: psoriasis index (PASI), body weight, use of enrichment and mortality. At the end of treatment period, TEWL is assessed, and blood and skin samples are collected. Histological analysis of skin samples is used for microscopic scoring of psoriasis and the determination of the thickness of parakeratosis and epidermis and blood analysis is used for assessing the level of proinflammatory biomarkers (cytokines assays). The effect of treatment of psoriasis induced mice with BETi formulations at the four dose levels are compared with Dermoval® cream containing 0.05% clobetasol propionate (reference) and vehicle (positive control) and also with healthy mice treated with vehicle (negative control).
PASI scoring takes into account the following 3 parameters: the presence of erythema on the skin, induration of the skin (thickening) and peeling of the skin at the area of the induction of psoriasis.
The presence of erythema on the skin at the area of induction of psoriasis with the following scoring grid: • 0=no or no more erythema on the skin, • 1=weak erythema on the skin, • 2=moderate erythema on the skin, • 3=important erythema on the skin.
The presence of induration of the skin at the area of induction of psoriasis with the following scoring grid: • 0=no or no more induration of the skin, • 1=weak induration of the skin, • 2=moderate induration of the skin, • 3=important induration of the skin.
The presence of peeling of the skin at the area of induction of psoriasis with the following scoring grid: • 0=no or no more dryness/peeling of the skin, • 1=weak dryness/peeling of the skin, • 2=moderate dryness/peeling of the skin, • 3=important dryness/peeling of the skin.
The sum of the mean scores of these 3 parameters result in the mean PASI score.
One of the issues with a steroid is that it causes skin thinning and continues to have an effect on no longer inflamed skin and the model set up and measurements above are not designed to reflect this negative effect. Therefore, a modified PASI (mPASI) is calculated in the same the manner as mean PASI score but excludes the scoring for induration (thickening of the skin).
Mice are weighed three times during the week of D1 to D7, and then daily during the week of D7 to D13, as well as on the day D14 when they are sacrificed. It should be noted that a characteristic body weight loss of mice is observed after the start of the induction of psoriasis, mainly during the first days following it. The body weight loss can reach between 10 to 15%.
For the duration of the experiment, dental rolls are used as enrichment and placed in each cage and replaced twice. Between D1 and D7, the number of dental rolls used by animals are determined twice in the morning, and are determined daily during D7 to D14, at the time of PASI or the tolerance assessment. The use of dental rolls is scored from 0=no use of dental rolls to 4=use of the 4 dental rolls. In the case where only half of a dental roll is used, a score of 0.5 is assigned. […]

With `Cn1cc(-c2cccc(O)c2Oc2ccccc2)c2cc[nH]c2c1=O` [BETi1] the “PASI Mean score values” (D 11, listed as BETi1 0.001%) was 8.00, the Mean body weights (D 11, listed as BETi1 0.01%) was 17.93 and the “Modified PASI Mean score values” (D 11, listed as BETi1 0.01%) was 2.75. The “PASI Mean score values” (D 11, listed as BETi1 0.01%) was 5.00, the “Mean score use enrichment” value (D 11, listed as BETi 1.0%) was 3.50 and the “Modified PASI Mean score values” (D 12, listed as BETI1 0.1%) was 0.50. The “PASI Mean score values” (D 12, listed as BETI1 0.1%) was 1.00, the “Modified PASI Mean score values” (D 12, listed as BETI1 1.0%) was 4.25 and the “PASI Mean score values” (D 12, listed as BETI1 1.0%) was 7.25. For the same molecule, the “Mean score use enrichment” value (D 12, listed as BETi 0.001%) was 4.00, the “Mean score use enrichment” value (D 12, listed as BETi 0.01%) was 4.00 and the “Mean score use enrichment” value (D 12, listed as BETi 0.1%) was 4.00. For the same molecule, the “Modified PASI Mean score values” (D 12, listed as BETi1 0.001%) was 4.50, the “PASI Mean score values” (D 12, listed as BETi1 0.001%) was 6.00 and the “Modified PASI Mean score values” (D 12, listed as BETi1 0.01%) was 1.00. For the same molecule, the “PASI Mean score values” (D 12, listed as BETi1 0.01%) was 2.25, the “Mean score use enrichment” value (D 12, listed as BETi 1.0%) was 2.25 and the “Modified PASI Mean score values” (D 13, listed as BETI1 0.1%) was 0.50. The “PASI Mean score values” (D 13, listed as BETI1 0.1%) was 1.00, the “Modified PASI Mean score values” (D 13, listed as BETI1 1.0%) was 3.25 and the “PASI Mean score values” (D 13, listed as BETI1 1.0%) was 5.25. The “Mean score use enrichment” value (D 13, listed as BETi 0.001%) was 4.00, the “Mean score use enrichment” value (D 13, listed as BETi 0.01%) was 4.00 and the “Mean score use enrichment” value (D 13, listed as BETi 0.1%) was 4.00. For the same molecule, the “Modified PASI Mean score values” (D 13, listed as BETi1 0.001%) was 4.00, the “PASI Mean score values” (D 13, listed as BETi1 0.001%) was 5.50 and the “Modified PASI Mean score values” (D 13, listed as BETi1 0.01%) was 1.75. The “PASI Mean score values” (D 13, listed as BETi1 0.01%) was 2.75, the “Mean score use enrichment” value (D 13, listed as BETi 1.0%) was 2.75 and the “Mean score use enrichment” value (D 14) was 4.00. The “Mean TEWL score values” (D14, Lower back, listed as BETi1 1.0%) was 30.63 g/h/m2, the “Mean TEWL score values” (D14, Lower back, listed as BETi10.001%) was 42.11 g/h/m2 and the “Mean TEWL score values” (D14, Lower back, listed as BETi10.01%) was 57.25 g/h/m2. For the same molecule, the “Mean TEWL score values” (D14, Lower back, listed as BETi10.1%) was 39.27 g/h/m2, the “Mean TEWL score values” (D14, Mean, listed as BETi1 1.0%) was 38.60 g/h/m2 and the “Mean TEWL score values” (D14, Mean, listed as BETi10.001%) was 40.35 g/h/m2. The “Mean TEWL score values” (D14, Mean, listed as BETi10.01%) was 39.55 g/h/m2, the “Mean TEWL score values” (D14, Mean, listed as BETi10.1%) was 27.14 g/h/m2 and the “Mean TEWL score values” (D14, Mid back, listed as BETi1 1.0%) was 40.80 g/h/m2. The “Mean TEWL score values” (D14, Mid back, listed as BETi10.001%) was 41.26 g/h/m2, the “Mean TEWL score values” (D14, Mid back, listed as BETi10.01%) was 34.53 g/h/m2 and the “Mean TEWL score values” (D14, Mid back, listed as BETi10.1%) was 24.04 g/h/m2. For the same molecule, the “Mean TEWL score values” (D14, Upper back, listed as BETi1 1.0%) was 44.36 g/h/m2, the “Mean TEWL score values” (D14, Upper back, listed as BETi10.001%) was 37.67 g/h/m2 and the “Mean TEWL score values” (D14, Upper back, listed as BETi10.01%) was 26.87 g/h/m2. The “Mean TEWL score values” (D14, Upper back, listed as BETi10.1%) was 18.11 g/h/m2, the “Modified PASI Mean score values” (D 14, listed as BETI1 0.1%) was 0.50 and the “PASI Mean score values” (D 14, listed as BETI1 0.1%) was 1.25. The “Modified PASI Mean score values” (D 14, listed as BETI1 1.0%) was 3.50, the “PASI Mean score values” (D 14, listed as BETI1 1.0%) was 5.00 and the “Modified PASI Mean score values” (D 14, listed as BETi1 0.001%) was 3.75. The “PASI Mean score values” (D 14, listed as BETi1 0.001%) was 5.50, the “Modified PASI Mean score values” (D 14, listed as BETi1 0.01%) was 1.50 and the “PASI Mean score values” (D 14, listed as BETi1 0.01%) was 2.25. The clinical signs (end of treatment) was “substantial resolution of clinical signs”, the dermal tolerance (topical 7 days) was “no evidence of dermal tolerance issues” and the “reduction in mPASI score (composite inflammation severity score) relative to vehicle control group” value (treatment Day 7) was 94%. For the same molecule, the “Absolute Body Weight Change from day 1 to day 14, D14 − D1, individual mouse” value (listed as BETi1 -0.001%) was 1.58.
